Measured values as given in patent publication US9079866B2, “Flap modulators” (JANSSEN PHARMACEUTICA NV, priority 2013, dated 2015).
pKi: −log10 of the molar value. Where a name gives a salt, the structure may show the parent alone.

target: human FLAP (Homo sapiens (Human), UniProt P20292); assay: FLAP binding assay (HTRF format); conditions: human FLAP wild type, HTRF format; average of two plates, duplicates
Description: The ability of the compounds of the present invention to treat a FLAP-mediated disease and/or disorder, or associated symptoms or complications thereof, was determined using the following procedures. Binding assay data represent the average value obtained from two different assay plates, with samples run in duplicate on each plate. Human whole blood assay data represent a single replicate on an assay plate using whole blood from at least one healthy donor.
Data are expressed as a HTRF ratio.

human FLAP, sequence (P20292 whole entry): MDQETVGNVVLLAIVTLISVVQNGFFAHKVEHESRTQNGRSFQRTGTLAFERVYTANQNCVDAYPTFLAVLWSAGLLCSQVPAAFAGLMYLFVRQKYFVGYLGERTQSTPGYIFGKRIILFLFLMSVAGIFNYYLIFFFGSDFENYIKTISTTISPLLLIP

Row | pKi | SMILES
1 | < 5.00 | CS(=O)(=O)c1ccccc1-c1ccc(-c2ncc(N)nc2C#N)c(F)c1 [Example 3, 6-Amino-3-[3-fluoro-2′-(methylsulfonyl)biphenyl-4-yl]pyrazine-2-carbonitrile]
2 | 7.02 | CN1C(C)(C)CC(NS(=O)(=O)c2ccccc2-c2ccc(-c3cnc(N)cn3)c(F)c2)CC1(C)C [Example 30, 4′-(5-Aminopyrazin-2-yl)-3′-fluoro-N-(1,2,2,6,6-pentamethylpiperidin-4-yl)biphenyl-2-sulfonamide]
3 | 6.52 | Nc1cnc(-c2ccc(-c3ccccc3NS(N)(=O)=O)cc2F)cn1 [Example 33, N-[4′-(5-Aminopyrazin-2-yl)-3′-fluorobiphenyl-2-yl]sulfamide]
4 | 6.18 | CCS(=O)(=O)c1ccccc1-c1ccc(-c2cnc(N)cn2)c(F)c1 [Example 191, 5-[2′-(Ethylsulfonyl)-3-fluorobiphenyl-4-yl]pyrazin-2-amine]
5 | 6.13 | CC(C)(C)S(=O)(=O)c1ccccc1-c1ccc(-c2cnc(N)cn2)c(F)c1 [Example 194, 5-[2′-(tert-Butylsulfonyl)-3-fluorobiphenyl-4-yl]pyrazin-2-amine]
6 | 6.07 | C[C@H](CO)NS(=O)(=O)Cc1ccccc1-c1ccc(-c2cnc(N)cn2)c(F)c1 [Example 225, (R)-1-(4′-(5-Aminopyrazin-2-yl)-3′-fluoro-[1,1′-biphenyl]-2-yl)-N-(1-hydroxypropan-2-yl)-methanesulfonamide hydrochloride]
7 | 6.45 | NC(=O)NC1CCN(S(=O)(=O)Cc2ccccc2-c2ccc(-c3cnc(N)cn3)c(F)c2)CC1 [Example 232, 1-[1-({[4′-(5-Aminopyrazin-2-yl)-3′-fluorobiphenyl-2-yl]methyl}sulfonyl)piperidin-4-yl]urea hydrochloride]
8 | 8.22 | Nc1cnc(-c2ccc(-c3ccccc3CSc3cccnn3)cc2F)cn1 [Example 239, 5-(3-Fluoro-2′-((pyridazin-3-ylthio)methyl)-[1,1′-biphenyl]-4-yl)pyrazin-2-amine hydrochloride]
9 | 6.03 | Nc1ncc(-c2ccc(-c3ccccc3S(=O)(=O)N3CCNCC3)cc2F)cn1 [Example 290, 5-[3-Fluoro-2′-(piperazin-1-ylsulfonyl)biphenyl-4-yl]pyrimidin-2-amine trifluoroacetic acid salt]
10 | < 5.00 | CC(C)(C)S(=O)(=O)c1ccccc1-c1ccc(-c2cnc(N)nc2)c(F)c1 [Example 293, 5-[2′-(tert-Butylsulfonyl)-3-fluorobiphenyl-4-yl]pyrimidin-2-amine trifluoroacetic acid salt]
11 | 6.92 | CN(C)S(=O)(=O)c1ccccc1-c1ccc(-c2cnc(N)nc2)c(F)c1 [Example 299, 4′-(2-Aminopyrimidin-5-yl)-3′-fluoro-N,N-dimethylbiphenyl-2-sulfonamide trifluoroacetic acid salt]
12 | 5.60 | Nc1ncc(-c2ccc(-c3ccccc3S(N)(=O)=O)cc2F)cn1 [Example 302, 4′-(2-Aminopyrimidin-5-yl)-3′-fluorobiphenyl-2-sulfonamide trifluoroacetic acid salt]
13 | 6.21 | Nc1ncc(-c2ccc(-c3ccccc3S(=O)(=O)N3CCOCC3)cc2F)cn1 [Example 303, 5-[3-Fluoro-2′-(morpholin-4-ylsulfonyl)biphenyl-4-yl]pyrimidin-2-amine trifluoroacetic acid salt]
14 | 6.40 | Nc1ncc(-c2ccc(-c3ccccc3S(=O)(=O)N3CCNC(=O)C3)cc2F)cn1 [Example 306, 4-{[4′-(2-Aminopyrimidin-5-yl)-3′-fluorobiphenyl-2-yl]sulfonyl}piperazin-2-one trifluoroacetic acid salt]
15 | < 5.00 | C[C@H](NS(=O)(=O)c1ccccc1-c1ccc(-c2cnc(N)nc2)c(F)c1)C(=O)O [Example 308, N-{[4′-(2-Aminopyrimidin-5-yl)-3′-fluorobiphenyl-2-yl]sulfonyl}-L-alanine]
16 | 6.31 | Nc1ncc(-c2ccc(-c3ccccc3NS(=O)(=O)N3CCOCC3)cc2F)cn1 [Example 310, N-[4′-(2-Aminopyrimidin-5-yl)-3′-fluorobiphenyl-2-yl]morpholine-4-sulfonamide]
17 | 6.13 | CN(C)S(=O)(=O)Nc1ccccc1-c1ccc(-c2cnc(N)nc2)c(F)c1 [Example 311, N′-[4′-(2-Aminopyrimidin-5-yl)-3′-fluorobiphenyl-2-yl]-N,N-dimethylsulfamide]

same assay, conditions: read-out: FLAP Binding wild type HTRF Ki

Row | SMILES | pKi
18 | Nc1cnc(-c2ccc(-c3ccccc3CS(=O)(=O)N3CCNC(=O)C3)cc2F)cn1 [Example 223, 4-({[4′-(5-Aminopyrazin-2-yl)-3′-fluorobiphenyl-2-yl]methyl}sulfonyl)piperazin-2-one formic acid salt] | 6.18
19 | CS(=O)(=O)c1ccccc1-c1ccc(-c2cnc(N)nc2)c(F)c1 [Example 304, 5-[3-Fluoro-2′-(methylsulfonyl)biphenyl-4-yl]pyrimidin-2-amine trifluoroacetic acid salt] | < 5.00

same assay, conditions: wild type FLAP, HTRF format

Row | pKi | SMILES
20 | 6.25 | CC(O)C1CN(C(=O)c2ccccc2-c2ccc(-c3cnc(N)cn3)c(F)c2)CCO1 (mixture of isomers) [Example 758, 1-(4-{[4′-(5-Aminopyrazin-2-yl)-3′-fluorobiphenyl-2-yl]carbonyl}morpholin-2-yl)ethanol (Diastereomeric Mixture)]
21 | < 5.00 | CC(O)C1CN(C(=O)c2ccccc2-c2ccc(-c3cnc(N)nc3)c(F)c2)CCO1 (mixture of isomers) [Example 759, 1-(4-{[4′-(2-Aminopyrimidin-5-yl)-3′-fluorobiphenyl-2-yl]carbonyl}morpholin-2-yl)ethanol (diastereomeric mixture)]
22 | < 5.00 | Nc1ncc(-c2ccc(-c3ccccc3C(=O)NC3CCC(O)CC3)cc2F)cn1 (mixture of isomers) [Example 765, (cis/trans) 4′-(2-Aminopyrimidin-5-yl)-3′-fluoro-N-(4-hydroxycyclohexyl)biphenyl-2-carboxamide]
23 | < 5.00 | CC1CN(C(=O)c2ccccc2-c2ccc(-c3cnc(N)nc3)c(F)c2)CC(C)O1 (mixture of isomers) [Example 780, 5-{2′-[(2,6-Dimethylmorpholin-4-yl)carbonyl]-3-fluorobiphenyl-4-yl}pyrimidin-2-amine (Diastereoisomeric Mixture)]
24 | < 5.00 | C[S+]([O-])c1ccccc1-c1ccc(-c2cnc(N)cn2)c(F)c1 (racemic) [Example 700, racemic 5-[3-Fluoro-2′-(methylsulfinyl)biphenyl-4-yl]pyrazin-2-amine]
25 | 5.72 | Nc1ncc(-c2ccc(-c3ccccc3C(=O)N3CCOC(C(F)(F)F)C3)cc2F)cn1 (racemic) [Example 766, racemic 5-(3-Fluoro-2′-{[2-(trifluoromethyl)morpholin-4-yl]carbonyl}biphenyl-4-yl)pyrimidin-2-amine]
26 | < 5.00 | Nc1ncc(-c2ccc(-c3ccccc3C(=O)N3CCOC(CO)C3)cc2F)cn1 (racemic) [Example 799, racemic [2-[4-(2-Aminopyrimidin-5-yl)-3-fluoro-phenyl]phenyl]-[2-(hydroxymethyl)morpholin-4-yl]methanone]
27 | 5.86 | CC(CO)Oc1ncccc1-c1ccc(-c2cnc(N)nc2)c(F)c1 (stereo in doubt) [Example 656, (2R)-2-({3-[4-(2-Aminopyrimidin-5-yl)-3-fluorophenyl]pyridin-2-yl}oxy)propan-1-ol]
